Measurements as given in PubChem BioAssay AID256 (DTP/NCI, 2004).
Values joined by “and” are separate entries in the source; they are usually repeats but may differ in a detail not shown here. Equal values may be shown once. Toxic doses and inconclusive results are not listed. How the source made its calls: active means survival T/C of 150% or more; inactive means T/C below 125% in these data.

Test system: CD2F1 mice, L1210 leukemia ip, survival T/C
Experiment: NCI In Vivo Anticancer Drug Screen. Data for tumor model L1210 Leukemia (intraperitoneal) in CD2F1 (CDF1) mice
Conditions: higher = longer survival
Procedure, shortened: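 Ratio T/C, where T is the treated-group value and C the vehicle-dosed control value, from mice implanted with a transplantable tumor.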

[1] = endpoint: mean survival time, dose: 12.5 mg/kg/injection, schedule: Q01DX005 (ip), vehicle: water
[2] = endpoint: mean survival time, dose: 25.0 mg/kg/injection, schedule: Q01DX005 (ip), vehicle: water
[3] = endpoint: mean survival time, dose: 50.0 mg/kg/injection, schedule: Q01DX005 (ip), vehicle: water
[4] = endpoint: mean survival time, dose: 6.25 mg/kg/injection, schedule: Q04DX003 (ip), vehicle: saline with Tween-80
[5] = endpoint: mean survival time, dose: 12.5 mg/kg/injection, schedule: Q04DX003 (ip), vehicle: saline with Tween-80
[6] = endpoint: mean survival time, dose: 25.0 mg/kg/injection, schedule: Q04DX003 (ip), vehicle: saline with Tween-80
[7] = endpoint: mean survival time, dose: 100.0 mg/kg/injection, schedule: Q04DX003 (ip), vehicle: saline with Tween-80
[8] = endpoint: mean survival time, dose: 100.0 mg/kg/injection, schedule: Q04DX003 (ip), vehicle: other
[9] = endpoint: mean survival time, dose: 100.0 mg/kg/injection, schedule: Q04DX003 (ip), vehicle: saline
[10] = endpoint: mean survival time, dose: 200.0 mg/kg/injection, schedule: Q04DX003 (ip), vehicle: saline
[11] = endpoint: mean survival time, dose: 400.0 mg/kg/injection, schedule: Q04DX003 (ip), vehicle: saline
[12] = endpoint: mean survival time, dose: 200.0 mg/kg/injection, schedule: Q04DX003 (ip), vehicle: saline with Tween-80
[13] = endpoint: mean survival time, dose: 400.0 mg/kg/injection, schedule: Q04DX003 (ip), vehicle: saline with Tween-80
[14] = endpoint: mean survival time, dose: 25.0 mg/kg/injection, schedule: Q01DX009 (ip), vehicle: saline with Tween-80
[15] = endpoint: mean survival time, dose: 50.0 mg/kg/injection, schedule: Q01DX009 (ip), vehicle: saline with Tween-80
[16] = endpoint: mean survival time, dose: 50.0 mg/kg/injection, schedule: Q04DX003 (ip), vehicle: saline with Tween-80

Measured: T/C

CSc1ncnc2c1ccn2C1OC(COP(=O)(O)O)C(O)C1O (centres undefined)
inactive: [1] 105 % of control | [2] 108 % of control and 111 % of control | [3] 114 % of control and 109 % of control | endpoint: mean survival time, dose: 150.0 mg/kg/injection, schedule: Q01DX005 (ip), vehicle: water 121 % of control

C[N+](C)(C)C1(Cc2ccc(Br)cc2)c2ccccc2-c2ccccc21
inactive: [4] 88 % of control | [5] 88 % of control | [6] 87 % of control | [7] 92 % of control

O=S1(=O)CC23C=CC=CC2(CCCC3)C1Cl (centres undefined)
inactive: [8] 94 % of control

CCCCCCCC(O)CCCCCCC
inactive: endpoint: mean survival time, dose: 100.0 mg/kg/injection, schedule: Q01DX009 (ip), vehicle: other 101 % of control | [8] 95 % of control | endpoint: mean survival time, dose: 200.0 mg/kg/injection, schedule: Q01DX009 (ip), vehicle: other 98 % of control | endpoint: mean survival time, dose: 200.0 mg/kg/injection, schedule: Q04DX003 (ip), vehicle: other 97 % of control | endpoint: mean survival time, dose: 400.0 mg/kg/injection, schedule: Q01DX009 (ip), vehicle: other 95 % of control | endpoint: mean survival time, dose: 400.0 mg/kg/injection, schedule: Q04DX003 (ip), vehicle: other 100 % of control

O=C1CCCC[CH]1[Hg][Cl] (centres undefined)
inactive: endpoint: mean survival time, dose: 1.25 mg/kg/injection, schedule: Q01DX009 (ip), vehicle: saline 95 % of control | endpoint: mean survival time, dose: 2.5 mg/kg/injection, schedule: Q01DX009 (ip), vehicle: saline 107 % of control

O=C1CC2C3C=CC(C12)C1C(=O)OC(=O)C31 (centres undefined)
inactive: [9] 107 % of control | [10] 98 % of control | [11] 91 % of control

Oc1ccccc1CNc1ccccc1
inactive: [7] 98 % of control | [12] 93 % of control | [13] 104 % of control

CCCCCOc1ccccc1Cl
inactive: endpoint: mean survival time, dose: 100.0 mg/kg/injection, schedule: Q04DX002 (ip), vehicle: saline with Tween-80 101 % of control | endpoint: mean survival time, dose: 200.0 mg/kg/injection, schedule: Q04DX002 (ip), vehicle: saline with Tween-80 98 % of control

C=CCCCCCCCCC(=O)NCc1cccnc1
inactive: [7] 98 % of control | [12] 104 % of control | [13] 90 % of control

CNCCNC1=C(Cl)C(=O)c2ccccc2C1=O
inactive: [4] 101 % of control | [5] 101 % of control | [6] 96 % of control and 102 % of control

O=C(COc1ccc(Cl)cc1Cl)Nc1ccc(F)cc1
inactive: [7] 88 % of control | [12] 90 % of control | [13] 89 % of control

CC(C)N1CCOC1c1ccccc1 (centres undefined)
inactive: endpoint: mean survival time, dose: 75.0 mg/kg/injection, schedule: Q01DX001 (ip), vehicle: saline 101 % of control | endpoint: mean survival time, dose: 150.0 mg/kg/injection, schedule: Q01DX001 (ip), vehicle: saline 101 % of control | endpoint: mean survival time, dose: 300.0 mg/kg/injection, schedule: Q01DX001 (ip), vehicle: saline 97 % of control

Nc1cc2n[nH]nc2c(=O)[nH]1
inactive: endpoint: median survival time, dose: 50.0 mg/kg/injection, schedule: Q01DX005 (ip), vehicle: saline with Tween-80 107 % of control | endpoint: median survival time, dose: 100.0 mg/kg/injection, schedule: Q01DX005 (ip), vehicle: saline with Tween-80 101 % of control | endpoint: median survival time, dose: 200.0 mg/kg/injection, schedule: Q01DX005 (ip), vehicle: saline with Tween-80 100 % of control

O=C(NNc1ccccc1)C(F)(F)F
inactive: [14] 107 % of control | [15] 101 % of control | endpoint: mean survival time, dose: 100.0 mg/kg/injection, schedule: Q04DX003 (ip), vehicle: acetone 93 % of control

CCOC(=O)C(C(=O)c1ccccc1)c1cc(NS(=O)(=O)c2ccccc2)ccc1O (centres undefined)
inactive: endpoint: mean survival time, dose: 132.0 mg/kg/injection, schedule: Q04DX003 (ip), vehicle: saline with Tween-80 115 % of control | [12] 106 % of control | endpoint: mean survival time, dose: 300.0 mg/kg/injection, schedule: Q04DX003 (ip), vehicle: saline with Tween-80 103 % of control

CC(C)OC(=O)Oc1cccs1
inactive: endpoint: mean survival time, dose: 12.5 mg/kg/injection, schedule: Q01DX009 (ip), vehicle: saline with Tween-80 102 % of control | endpoint: mean survival time, dose: 12.5 mg/kg/injection, schedule: Q04DX003 (ip), vehicle: saline sonified 103 % of control | [14] 96 % of control | endpoint: mean survival time, dose: 25.0 mg/kg/injection, schedule: Q04DX003 (ip), vehicle: saline sonified 97 % of control | [15] 104 % of control | endpoint: mean survival time, dose: 50.0 mg/kg/injection, schedule: Q04DX003 (ip), vehicle: saline sonified 101 % of control

CN(C)c1ccc(C(=C2C=CC(=[N+](C)C)C=C2)c2ccc(N(C)C)cc2)cc1 (tested in a mixture with another compound)
inactive: endpoint: mean survival time, dose: 0.15 mg/kg/injection, schedule: Q01DX009 (ip), vehicle: saline with Tween-80 110 % of control | endpoint: mean survival time, dose: 0.31 mg/kg/injection, schedule: Q01DX009 (ip), vehicle: saline with Tween-80 100 % of control | endpoint: mean survival time, dose: 0.31 mg/kg/injection, schedule: Q01DX009 (ip), vehicle: suspension in saline 97 % of control | endpoint: mean survival time, dose: 0.62 mg/kg/injection, schedule: Q01DX009 (ip), vehicle: saline with Tween-80 105 % of control | endpoint: mean survival time, dose: 0.62 mg/kg/injection, schedule: Q01DX009 (ip), vehicle: suspension in saline 106 % of control | endpoint: mean survival time, dose: 1.25 mg/kg/injection, schedule: Q01DX009 (ip), vehicle: saline with Tween-80 113 % of control | endpoint: mean survival time, dose: 1.25 mg/kg/injection, schedule: Q01DX009 (ip), vehicle: suspension in saline 101 % of control | endpoint: mean survival time, dose: 2.5 mg/kg/injection, schedule: Q01DX009 (ip), vehicle: saline with Tween-80 117 % of control | endpoint: mean survival time, dose: 2.5 mg/kg/injection, schedule: Q01DX009 (ip), vehicle: suspension in saline 106 % of control

c1ccc(Sc2cccc3c(-c4ccccc4)c4cccc5c4c(c23)C[S+]5c2ccccc2)cc1 (centres undefined)
inactive: endpoint: mean survival time, dose: 3.13 mg/kg/injection, schedule: Q04DX003 (ip), vehicle: saline with Tween-80 96 % of control | [4] 96 % of control | [5] 93 % of control

Cc1c(C)c(O)c(Br)c(C)c1O (tested in a mixture with another compound)
inactive: endpoint: mean survival time, dose: 25.0 mg/kg/injection, schedule: Q04DX003 (ip), vehicle: other 100 % of control | endpoint: mean survival time, dose: 50.0 mg/kg/injection, schedule: Q04DX003 (ip), vehicle: other 94 % of control

Brc1ccc2c(c1)CCCC2
inactive: [7] 95 % of control | [12] 103 % of control | [13] 93 % of control

CN(Cc1ccc(C(=O)NC(CCC(=O)O)C(=O)O)cc1)Cc1cnc2nc(N)nc(N)c2n1 (centres undefined)
inactive: endpoint: mean survival time, dose: 1.0 mg/kg/injection, schedule: Q01DX009 (ip), vehicle: water 96 % of control | endpoint: mean survival time, dose: 10.0 mg/kg/injection, schedule: Q01DX009 (ip), vehicle: water 114 % of control

NC(=O)c1csc(COCC(O)CO)n1 (centres undefined)
inactive: endpoint: median survival time, dose: 33.0 mg/kg/injection, schedule: Q01DX009 (ip), vehicle: water 101 % of control | endpoint: median survival time, dose: 66.0 mg/kg/injection, schedule: Q01DX009 (ip), vehicle: water 103 % of control | endpoint: median survival time, dose: 132.0 mg/kg/injection, schedule: Q01DX009 (ip), vehicle: water 107 % of control | endpoint: median survival time, dose: 264.0 mg/kg/injection, schedule: Q01DX009 (ip), vehicle: water 101 % of control

CCCCCCCCCCC(N)P(=O)(O)O (centres undefined)
inactive: [6] 91 % of control | [16] 91 % of control

CS(=O)(=O)c1cnc2ccccc2n1
inactive: [9] 97 % of control | [10] 86 % of control | [11] 95 % of control

[Cl][Pt+2][Cl].[NH-]CC(=O)O.[NH-]CC(=O)O
inactive: endpoint: mean survival time, dose: 12.5 mg/kg/injection, schedule: Q01DX009 (ip), vehicle: saline 96 % of control | endpoint: mean survival time, dose: 25.0 mg/kg/injection, schedule: Q01DX009 (ip), vehicle: saline 101 % of control | endpoint: mean survival time, dose: 50.0 mg/kg/injection, schedule: Q01DX009 (ip), vehicle: saline 108 % of control | endpoint: mean survival time, dose: 100.0 mg/kg/injection, schedule: Q01DX009 (ip), vehicle: saline 98 % of control | endpoint: mean survival time, dose: 200.0 mg/kg/injection, schedule: Q01DX009 (ip), vehicle: saline 96 % of control

Nc1ccc(CCc2ccccc2)cc1
inactive: endpoint: mean survival time, dose: 50.0 mg/kg/injection, schedule: Q04DX002 (ip), vehicle: saline with Tween-80 98 % of control and 105 % of control | [16] 104 % of control | [7] 100 % of control and 101 % of control and 107 % of control | [12] 92 % of control and 104 % of control

Cc1[nH]nc2c(=O)n(C)cnc12
inactive: [1] 103 % of control | [2] 104 % of control | [3] 98 % of control | endpoint: mean survival time, dose: 100.0 mg/kg/injection, schedule: Q01DX005 (ip), vehicle: water 92 % of control | endpoint: mean survival time, dose: 200.0 mg/kg/injection, schedule: Q01DX005 (ip), vehicle: water 95 % of control
